According to PMC11676817, “Antiproliferative and Morphological Analysis Triggered by Drugs Contained in the Medicines for Malaria Venture COVID-Box Against Toxoplasma gondii Tachyzoites” (Microorganisms, 2024):
Values joined by “and” are separate entries in the source; they are usually repeats but may differ in a detail not shown here. Identical values can stand only once. Like-named read-outs stand apart in the source and are kept apart here.

What was measured:
[1] = Rat; ref Table S3 supplementary ref 3; cited from earlier work
T. gondii tachyzoites [2] = experiment: Transmission electron microscopy of treated tachyzoites; assay type: cell-based, Toxoplasma gondii
Protocol: NHDF cultures infected with T. gondii were treated with compounds and fixed with 2.5% glutaraldehyde (EM Grade—Ted Pella Inc., Redding, CA, USA) in 0.1 M sodium cacodylate buffer pH 7.4 (Ted Pella Inc.). Cells were post-fixed with 1% osmium tetroxide, 1.25% potassium ferrocyanide, and 5 mM CaCl2, in 0.1 M sodium cacodylate buffer (pH 7.4). The sample fixation and processing for microscopy were performed as previously described. Samples were dehydrated in alcohol solutions of increasing concentrations (35–100%) and embedded in epoxy resin (Polybed 812, Polysciences). Ultrathin sections were collected in copper grids 300 mesh (Ted Pella Inc.), stained with uranyl acetate and lead citrate, and then observed in a Fei TecNai G2 120 kV Spirit Electron Microscope (FEI Company, Eindhoven, The Netherlands).

T. gondii tachyzoites [3] = conditions: read-out: IC50 against T. gondii, cited from earlier work
T. gondii tachyzoites [4] = experiment: Immunofluorescence microscopy of treated tachyzoites (aberrant cell division, rhoptry morphology); conditions: 24 h; for Effect on tachyzoite morphology and cell division (fluorescence microscopy): 125 nM; for Vacuoles with aberrant parasites: […] (250 nM)
Protocol: Rabbit anti-IMC1 (1:1000) and anti-ARO (1:1000) (kindly provided by Dr. Dominique Soldati, Universite de Geneve, Switzerland) were used to label the mother cell and daughter cell pellicles throughout the endodyogeny process and rhoptries, respectively. Mouse anti-SAG1 (1:200; kindly donated by Dr. Tiago Mineo, Universidade Federal de Uberlândia) was used to label the parasite plasma membrane. DAPI (2 µg/mL; Sigma-Aldrich, St. Louis, MO, USA) was used to label the DNA. […] After labeling with antibodies, the coverslips were mounted onto slides using Prolong gold (Life Technologies), and samples were examined on a Zeiss Axio Observer Z1 microscope (Baden-Württemberg, Germany) or Olympus BX60 microscope (Shinjuku City, Tokyo, Japan).

[5] = cited from earlier work
[6] = Rat, cited from earlier work; for Cmax: read-out: Plasma concentration (Cmax)
[7] = tested on: Toxoplasma gondii tachyzoites of the RH strain; experiment: microbe, parasite or virus in culture; assay type: cell-based; conditions: for activity at 0.5 µM: 500 nM; for activity at […]: 250 nM
[8] = tested on: Toxoplasma gondii tachyzoites of the RH strain; conditions: 7 days of treatment
[9] = design: method as in Table S3 supplementary ref 2; conditions: Mouse and Rat; ref Table S3 supplementary ref 2; cited from earlier work
[10] = cited from earlier work; remark: listed apart in the source
[11] = tested on: Toxoplasma gondii tachyzoites of the RH strain; experiment: microbe, parasite or virus in culture; conditions: 168 h
T. gondii = conditions: in vivo administration, murine model of chronic toxoplasmosis; ref [23],[24]; cited from earlier work
[12] = cited from earlier work; remark: listed apart in the source
[13] = cited from earlier work; remark: listed apart in the source
in vitro = conditions: human
[14] = in vivo; cited from earlier work
[15] = estimated; ref [66]; cited from earlier work
[16] = Cytotoxicity assay in NHDF cells (MTS); conditions: human
[17] = design: method as in Table S3 supplementary ref 30; conditions: Rat and Monkey; ref Table S3 supplementary ref 30; cited from earlier work
[18] = published in vivo studies, ref Table S3
[19] = read-out: IC50 (μM) in Tachyzoites, RH strain in NHDF cells, plaque assay
[20] = Human, ref Table S3 supplementary refs 1, 4, 8, 11, 13, 15, 17, 18, 19, 23, 31
[21] = read-out: Plasma concentration (Cmax), Human, ref Table S3 supplementary refs 1, 4, 8, 11, 13, 15, 17, 18, 19, 23
[22] = read-out: IC50 against T. gondii proliferation, RH strain, 7 days of treatment
[23] = NHDF, read-out: IC50 (μM) in Tachyzoites, RH strain in NHDF cells, plaque assay, 7 days of treatment
[24] = Toxoplasma gondii, 1000 nM, 24 h of treatment, read-out: Proliferation index (%)
[25] = Toxoplasma gondii, 24 h of treatment, read-out: Proliferation index (%)

COc1ccc(C[C@H]2NC[C@H](O)[C@H]2OC(C)=O)cc1 [(-)-Anisomycin]
Does it cross the blood-brain barrier or is found in the brain? [1]: Yes
Effect on T. gondii ultrastructure (TEM) (T. gondii tachyzoites [2]; 100 nM, 48 h): alteration of the ER architecture
IC50 (T. gondii tachyzoites [3]; 48 h of treatment, ref Fichera, Bhopale, and Ross (1995) [43]): 10 nM
PVs with parasites with aberrant division (T. gondii tachyzoites [4]; 62.5 nM, IMC1 and DAPI labeling): 22.5%
Effect on tachyzoite morphology and cell division (fluorescence microscopy) (T. gondii tachyzoites [4]): complete arrestment of cell division
Brain availability [5, 18]: confirmed
Plasma concentration (Cmax) ([6]; ref Table S3 supplementary refs 3, 10, 12, 21): 2.75 ng/mL
Proliferation index (%) ([7]; 62.5 nM, 24 h of treatment): 60.56%
Proliferation index (%) ([7]; 125 nM, 24 h of treatment): 22.63%
IC50 [8, 19]: 0.02 µM
IC50 ([8]; read-out: IC50 against T. gondii proliferation, RH strain): ≤ 0.03 µM

CCN1CCN(Cc2ccc(Nc3ncc(F)c(-c4cc(F)c5nc(C)n(C(C)C)c5c4)n3)nc2)CC1 [Abemaciclib]
Does it cross the blood-brain barrier or is found in the brain? [9]: Yes
Brain availability [5, 18]: confirmed
Plasma concentration (Cmax) [10, 20]: 492 ng/mL
Cmax [10, 21]: 971 nM
IC50 [11, 22]: < 0.1 µM
IC50 [11, 23]: 0.09 ± 0.01 µM

C=CCNc1nc(NCC=C)nc(N2CCN(C(c3ccc(F)cc3)c3ccc(F)cc3)CC2)n1 [Almitrine]
Effect on T. gondii ultrastructure (TEM) (T. gondii tachyzoites [2]; 1 µM, 48 h): induced myelin-like structures
IC50 (T. gondii tachyzoites [3]; 72 h of treatment, ref [23],[24]): 420 nM and 320 nM
Vacuoles containing tachyzoites with cell division alteration (T. gondii tachyzoites [4]; 1 µM, IMC1 and DAPI labeling): 23.9%
inhibition at 1 µM ([7]; Toxoplasma gondii, 1000 nM, 24 h, read-out: Inhibition of parasite proliferation): 55 to 60%
activity at 1 µM [7, 24]: 44.1%
Plasma concentration (Cmax) [10, 20]: 286.2 ng/mL
Cmax [10, 21]: 599 nM and ≤ 599 nM
IC50 [8, 19]: 0.33 ± 0.04 µM
Effect on the number of cysts (T. gondii): reduced the number of cysts

Cc1cccc(/C=N/Nc2cc(N3CCOCC3)nc(OCCc3ccccn3)n2)c1 [Apilimod]
Cmax ([12]; mouse, in vivo): 2530 nM
Brain availability ([5]; in vivo): confirmed
Inhibition of parasite proliferation, in words ([7]; 0.5–1 µM, 24 h): modest inhibition
activity at 0.5 µM [7, 25]: 99.7%
activity at 1 µM [7, 24]: 73.2%
IC50 [11, 23]: 0.22 ± 0.06 µM
Does it cross the blood-brain barrier or is found in the brain? ([13]; mouse, in vivo): Yes
CC50 at 7 days (in vitro): 2120 ± 120 nM
selectivity ratio at 7 days (in vitro): 10

Nc1nc(Nc2ccc3c(c2)CC[C@@H](N2CCCC2)CC3)nn1-c1cc2c(nn1)-c1ccccc1CCC2 [Bemcentinib]
Brain availability ([5]; in vivo): confirmed
Cmax ([10]; human, in vivo): 105 nM
Plasma concentration (Cmax) ([10]; human, in vivo): 53 ng/mL
IC50 [11, 23]: 0.15 ± 0.03 µM
Does it cross the blood-brain barrier or is found in the brain? [14]: Yes
CC50 at 7 days (in vitro): 970 ± 150 nM
selectivity ratio at 7 days (in vitro): 6

CO[C@@H]1[C@H](N(C)C(=O)c2ccccc2)C[C@H]2O[C@]1(C)n1c3ccccc3c3c4c(c5c6ccccc6n2c5c31)C(=O)NC4 [Midostaurin]
Oral bioavailability [15]: > 90%
Effect on T. gondii ultrastructure (TEM) (T. gondii tachyzoites [2]; 250 µM as printed, 48 h): drastic effects on the parasite ultrastructure
Vacuoles with aberrant parasites (T. gondii tachyzoites [4]): more than 80%
Vacuoles with aberrant parasites (T. gondii tachyzoites [4]; listed as midostaurin): around 80%
activity at […] [7, 25]: 23.1%
activity at 0.5 µM [7, 25]: 24.3%
activity at 1 µM [7, 24]: 24.9%
Plasma concentration (Cmax) [10, 20]: 1210 ng/mL
Cmax [10, 21]: 2120 nM
IC50 [11, 23]: 0.08 µM
CC50 at 7 days [16]: 240 ± 20 nM

CNC(=O)c1cc(Oc2ccc(NC(=O)Nc3ccc(Cl)c(C(F)(F)F)c3)c(F)c2)ccn1 [Regorafenib]
Brain availability ([5]; in vivo): confirmed
Cmax ([10]; human, in vivo): 3900 nM
Plasma concentration (Cmax) ([10]; human, in vivo): 1900 ng/mL
IC50 [11, 23]: 0.25 ± 0.04 µM
Does it cross the blood-brain barrier or is found in the brain? [14]: Yes
CC50 at 7 days (in vitro): 3030 ± 10 nM
selectivity ratio at 7 days (in vitro): 12

CC[C@@H](C(=O)[C@@H](C)[C@@H](O)[C@H](C)[C@@H]1O[C@@H]([C@@H](CC)C(=O)O)CC[C@@H]1C)[C@H]1O[C@]2(C=C[C@@H](O)[C@]3(CC[C@@](C)([C@H]4CC[C@](O)(CC)[C@H](C)O4)O3)O2)[C@H](C)C[C@@H]1C [Salinomycin]
Plasma concentration (Cmax) ([12]; Mice, ref Table S3 supplementary ref 27): 13.2 ng/mL
Cmax ([12]; read-out: Plasma concentration (Cmax), Mouse/Mice, ref Table S3 supplementary refs 16, 27): 17.6 nM
Effect on T. gondii ultrastructure (TEM) (T. gondii tachyzoites [2]; 125 and […] nM, 24 h): extensive vacuolization process
Effect on tachyzoite morphology and cell division (fluorescence microscopy) (T. gondii tachyzoites [4]): vacuoles containing fragmented parasites
Brain availability [5, 18]: confirmed
Plasma concentration (Cmax) ([6]; ref Table S3 supplementary refs 28, 32): 40 ng/mL
Cmax ([6]; ref Table S3 supplementary refs 3, 10, 12, 28, 32): 53.3 nM
activity at 0.0312 µM ([7]; Toxoplasma gondii, 31.2 nM, 24 h of treatment, read-out: Proliferation index (%)): 79.1%
activity at 0.0625 µM ([7]; Toxoplasma gondii, 62.5 nM, 24 h of treatment, read-out: Proliferation index (%)): 21.9%
activity at 0.125 µM ([7]; Toxoplasma gondii, 125 nM, 24 h of treatment, read-out: Proliferation index (%)): 14.4%
inhibition at […] ([7]; Toxoplasma gondii, […] nM ([…] µM), 24 h, read-out: Inhibition of parasite proliferation): > 90%
activity at […] [7, 25]: 6.38%
IC50 [11, 22]: < 0.1 µM
IC50 [11, 23]: 0.07 ± 0.01 µM
Does it cross the blood-brain barrier or is found in the brain? ([13]; Mice/Mouse, ref Table S3 supplementary refs 6, 16, 24, 27, 33): Yes
CC50 at 7 days (in vitro): 1140 ± 170 nM
selectivity ratio at 7 days (in vitro): 16

CNC(=O)c1cc(Oc2ccc(NC(=O)Nc3ccc(Cl)c(C(F)(F)F)c3)cc2)ccn1 [Sorafenib]
Does it cross the blood-brain barrier or is found in the brain? [17]: Yes
Brain availability [5, 18]: confirmed
Plasma concentration (Cmax) ([6]; ref Table S3 supplementary ref 29): 2410 ng/mL
Cmax ([6]; ref Table S3 supplementary refs 21, 29): 5200 nM
Plasma concentration (Cmax) [10, 20]: 1001.3 ng/mL
Cmax ([10]; read-out: Plasma concentration (Cmax), Human, ref Table S3 supplementary refs 20, 22, 25, 31): 2200 nM
IC50 [11, 23]: 0.56 ± 0.03 µM
